Measurements from patent publication US7150972B2, “Sterol carrier protein-2 from the mosquito, Aedes aegypti” (Wisconsin Alumni Research Foundation, priority 2003, dated 2006).
“And” between values parts separate entries of the source, which are not always exact repeats. Equal entries are not always repeated.

Columns and labels:
AeSCP-2 gene expression = assay: In vitro tissue culture of 4th instar gut and carcass with 20E; dot blotting and western blotting; format: cell-based, Aedes aegypti
Method: To investigate whether ecdysteroids affect AeSCP-2 expression, 12 hour-old 4th instars were dissected to separate the head, gut, and carcass. Gut and carcass were cultured in the same dish with and without 20E (60 ng/ml) for 6 hours. […] As expected, at the protein level AeSCP-2 increased in 20E-treated gut tissue cultures (FIG. 7A, inset, lane 5).
Northern and dot blotting analysis—Fifteen to twenty microgram of total RNA from indicated stages was used in Northern blotting analysis as described (Ausubel et al., 1993). After electrophoresis, RNAs in the formaldehyde-agarose gel was blotted onto positively charged Nylon membrane (Millipore, Bedford, Mass.). For dot blotting analysis, 5 ug of total RNA from three parallel samples (10 larvae per sample) of each developmental time point were blotted on to positively charged Nylon membrane as described (Millipore). The membranes were baked at 80° C. under vacuum for 1 hour and UV cross-linked (Stratagene Cloning system, La Jolla, Calif.).
Western blotting analysis—Intact animals, dissected tissues and cultured tissues were homogenized in lysis buffer (0.25M TRIS®HCl (hydroxymethyl aminomethane hydrochloride), pH 8.0/0.2% TRITON®X-100 (octyl phenol ethoxylate) 1 mM dithioerythritol/5 mM EDTA/10 mM β-mercaptoethanol/1 mM phenylmethylsulfonyl fluoride/protease inhibitor cocktail (Sigma)), and centrifuged at 12000×g at 4° C. for 15 minutes. Supernatants containing solvable proteins were stored at −80° C. Protein concentrations were determined using a BCA kit (Pierce, Rockford, Ill.). […]
In vitro tissue culture—Staged 4th instars were dissected in insect saline (Riddiford et al., 1979) to obtain gut and carcass for in vitro tissue culture study. […] Pure 20-hydroxyecdysone (Sigma) was dissolved in 95% ethanol, and the concentration was determined by UV spectrum absorption analysis at 243 nm wavelength (20E mg/ml=(OD 243×480)/ε and the ε=12,670). […] Total RNA was extracted from cultured tissues and analyzed by Dot blotting. […] Soluble proteins were extracted from cultured tissues and analyzed by western blotting.

recombinant AeSCP-2 = recombinant AeSCP-2 (Aedes aegypti, UniProt Q86PR3); assay: Radiolabeled cholesterol binding assay (Lipidex-1000), Scatchard plot; details: [3H]cholesterol, rAeSCP-2 8 pM per assay, 4° C. overnight, N=6
Description: Whether AeSCP-2 binds cholesterol with high affinity was examined using radiolabeled cholesterol and recombinant AeSCP-2 (rAeSCP-2). Lipidex-1000 has been used for studying lipid/sterol binding proteins over decades and is proven to be a reliable assay (Glatz and Veerkamp, 1983; Colles et al., 1995). The recombinant protein was purified as GST-tagged fusion protein (FIG. 5, lanes 2 and 5) on the GST affinity column and the GST-tag was removed using Thrombin (FIG. 5, lane 4). After 16-hour Thrombin digest, there was still considerable amount of uncut fusion proteins (FIG. 5, lane 5) that may be resulted from insufficient concentration of Thrombin in the column (400 units/10 ml column). Further digest with increased level of Thrombin did completely remove the GST tag (data not shown). To optimize the condition for binding assay, varied concentrations of rAeSCP-2 was tested with 0.07 to 0.1 pM of radiolabeled cholesterol per assay. […]
Radiolabeled cholesterol binding assay—The binding of radiolabeled cholesterol to AeSCP-2 was measured based on the Lipidex-1000 assay (Glatz and Veerkamp, 1983) optimized for AeSCP-2. […]
Standard cholesterol solution was made from pure cholesterol (Sigma) in 95% ethanol at concentrations 0.04 nM to 20 uM. […] The slope=−Ka and Kd was calculated as […].

SCP-2 = details: vertebrate SCP-2, Gallegos et al., 2001; read-out: Kd values of SCP-2 cholesterol-binding; cited from earlier work

Row | Structure (SMILES) | increase of AeSCP-2 mRNA level in cultured carcass (AeSCP-2 gene expression; 20E 60 ng/ml, 6 hours, carcass of 12 hour-old 4th instars) | increase of AeSCP-2 mRNA level in cultured gut (AeSCP-2 gene expression; 20E 60 ng/ml, 6 hours, gut of 12 hour-old 4th instars) [fold] | AeSCP-2 protein level in gut tissue cultures (AeSCP-2 gene expression; 20E-treated gut, western blot, FIG. 7 inset lane 5) | Kd (recombinant AeSCP-2) | Kd (SCP-2) [nM]
1 | CC(C)(O)CC[C@@H](O)[C@](C)(O)[C@H]1CC[C@@]2(O)C3=CC(=O)[C@@H]4C[C@@H](O)[C@@H](O)C[C@]4(C)[C@H]3CC[C@]12C [20E, 20-hydroxyecdysone] | not in the carcass | 2 | increased |  | 
2 | CC(C)CCC[C@@H](C)[C@H]1CC[C@H]2[C@@H]3CC=C4C[C@@H](O)CC[C@]4(C)[C@H]3CC[C@]12C [cholesterol] |  |  |  | 5.5 nM and 5.6 nM | 4 to 2600
